The values below come from patent US9926282B2, “Phthalazinones and isoquinolinones as rock inhibitors” (BRISTOL-MYERS SQUIBB COMPANY, priority 2013, dated 2018).

One experiment has as its target ROCK1 (Homo sapiens (Human), UniProt Q13464). As to the kind of experiment: ROCK assay (LABCHIP peptide phosphorylation), ROCK1. The class given is biochemical. Conditions: 5 μM ATP, 1.5 μM peptide substrate; read-out: ROCK1 IC50.
For the next experiment, the target named is ROCK2 (Homo sapiens (Human), UniProt O75116). As to the kind of experiment: ROCK assay (LABCHIP peptide phosphorylation), ROCK2. The class given is biochemical. Conditions: 5 μM ATP, 1.5 μM peptide substrate.
Chain of ROCK2 (O75116 whole entry, species assumed): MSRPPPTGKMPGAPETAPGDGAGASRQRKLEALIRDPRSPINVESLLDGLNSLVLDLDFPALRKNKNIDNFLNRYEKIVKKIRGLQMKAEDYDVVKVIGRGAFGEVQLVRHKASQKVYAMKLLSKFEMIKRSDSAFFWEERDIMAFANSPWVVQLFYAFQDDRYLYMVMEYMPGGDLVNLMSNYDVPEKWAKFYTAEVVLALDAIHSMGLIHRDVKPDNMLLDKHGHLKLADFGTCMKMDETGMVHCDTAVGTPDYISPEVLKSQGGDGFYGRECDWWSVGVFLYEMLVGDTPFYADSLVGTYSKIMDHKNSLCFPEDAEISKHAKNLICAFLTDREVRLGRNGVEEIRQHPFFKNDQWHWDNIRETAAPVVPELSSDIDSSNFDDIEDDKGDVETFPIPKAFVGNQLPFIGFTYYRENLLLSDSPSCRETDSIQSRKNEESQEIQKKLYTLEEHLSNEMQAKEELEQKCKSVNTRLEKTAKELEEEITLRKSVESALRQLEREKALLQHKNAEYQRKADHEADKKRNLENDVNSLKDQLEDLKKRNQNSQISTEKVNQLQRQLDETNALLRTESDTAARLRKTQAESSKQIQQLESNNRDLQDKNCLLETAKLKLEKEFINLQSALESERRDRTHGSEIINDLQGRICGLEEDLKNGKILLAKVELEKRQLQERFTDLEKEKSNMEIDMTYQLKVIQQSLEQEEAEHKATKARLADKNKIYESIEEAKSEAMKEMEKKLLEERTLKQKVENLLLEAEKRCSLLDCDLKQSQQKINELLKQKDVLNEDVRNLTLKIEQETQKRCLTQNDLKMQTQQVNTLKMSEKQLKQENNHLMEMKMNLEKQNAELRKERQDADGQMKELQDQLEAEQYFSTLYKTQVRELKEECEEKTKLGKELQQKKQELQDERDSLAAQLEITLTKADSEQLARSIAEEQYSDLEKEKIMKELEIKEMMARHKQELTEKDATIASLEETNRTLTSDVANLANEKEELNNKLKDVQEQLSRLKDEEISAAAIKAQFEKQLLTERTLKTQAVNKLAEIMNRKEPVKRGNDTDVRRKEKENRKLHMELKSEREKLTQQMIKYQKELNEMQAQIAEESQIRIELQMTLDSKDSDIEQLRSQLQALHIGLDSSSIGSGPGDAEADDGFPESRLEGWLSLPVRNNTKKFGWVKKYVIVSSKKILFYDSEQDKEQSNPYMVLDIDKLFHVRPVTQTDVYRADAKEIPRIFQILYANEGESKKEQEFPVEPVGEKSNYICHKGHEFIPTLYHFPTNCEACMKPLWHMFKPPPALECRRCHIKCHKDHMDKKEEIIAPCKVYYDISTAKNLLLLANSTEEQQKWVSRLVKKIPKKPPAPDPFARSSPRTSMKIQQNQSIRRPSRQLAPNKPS

Chain of ROCK1 (Q13464 whole entry, species assumed): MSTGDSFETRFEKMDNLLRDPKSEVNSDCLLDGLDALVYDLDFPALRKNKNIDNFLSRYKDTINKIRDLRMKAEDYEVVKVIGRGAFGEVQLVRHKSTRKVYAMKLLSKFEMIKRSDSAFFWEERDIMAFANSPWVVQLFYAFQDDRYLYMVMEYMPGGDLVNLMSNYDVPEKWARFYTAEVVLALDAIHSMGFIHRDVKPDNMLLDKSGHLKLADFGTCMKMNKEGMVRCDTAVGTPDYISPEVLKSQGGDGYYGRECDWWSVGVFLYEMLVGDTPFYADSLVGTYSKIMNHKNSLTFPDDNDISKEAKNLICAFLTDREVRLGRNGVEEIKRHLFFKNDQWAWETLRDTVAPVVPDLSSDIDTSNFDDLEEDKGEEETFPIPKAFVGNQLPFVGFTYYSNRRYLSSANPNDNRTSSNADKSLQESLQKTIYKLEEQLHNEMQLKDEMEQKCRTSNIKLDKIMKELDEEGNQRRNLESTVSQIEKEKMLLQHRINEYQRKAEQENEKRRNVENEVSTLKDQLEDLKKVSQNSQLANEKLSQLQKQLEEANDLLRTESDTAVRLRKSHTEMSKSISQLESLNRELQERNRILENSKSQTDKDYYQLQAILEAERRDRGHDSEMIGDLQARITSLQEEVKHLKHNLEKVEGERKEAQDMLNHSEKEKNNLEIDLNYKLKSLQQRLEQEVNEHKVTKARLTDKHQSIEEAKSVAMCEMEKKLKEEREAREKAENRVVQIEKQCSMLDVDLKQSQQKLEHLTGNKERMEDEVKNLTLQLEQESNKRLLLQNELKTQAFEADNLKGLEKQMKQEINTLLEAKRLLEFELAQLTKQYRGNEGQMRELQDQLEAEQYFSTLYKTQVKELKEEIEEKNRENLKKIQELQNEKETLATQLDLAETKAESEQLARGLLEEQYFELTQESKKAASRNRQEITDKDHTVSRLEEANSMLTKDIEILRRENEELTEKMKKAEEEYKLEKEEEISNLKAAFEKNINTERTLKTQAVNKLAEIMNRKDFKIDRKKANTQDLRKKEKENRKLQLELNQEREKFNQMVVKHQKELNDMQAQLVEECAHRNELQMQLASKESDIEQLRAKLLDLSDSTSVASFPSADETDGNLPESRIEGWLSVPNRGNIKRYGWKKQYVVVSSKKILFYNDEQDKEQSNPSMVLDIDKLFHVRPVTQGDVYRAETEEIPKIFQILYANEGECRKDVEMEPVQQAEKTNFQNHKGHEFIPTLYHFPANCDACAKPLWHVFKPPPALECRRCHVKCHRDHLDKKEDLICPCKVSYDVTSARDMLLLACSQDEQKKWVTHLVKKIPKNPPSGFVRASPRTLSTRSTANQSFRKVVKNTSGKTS

With `CN1CC(=O)c2c(C(=O)Nc3ccc(-c4n[nH]c(=O)c5ccccc45)cc3)coc2C1` [Example 111, 6-methyl-4-oxo-N-[4-(4-oxo-3,4-dihydrophthalazin-1-yl)phenyl]-4H,5H,6H,7H-furo[2,3-c]pyridine-3-carboxamide], the half-maximal inhibitory concentration (IC50) on ROCK1 and against ROCK2 was 101 to 1000 nM each time.
`O=C(c1ccc2c(c1)CCN2C(=O)Cc1ccc(-c2n[nH]c(=O)c3ccccc23)cc1)N1CCOCC1` [Example 296, 4-(4-{2-[5-(morpholine-4-carbonyl)-2,3-dihydro-1H-indol-1-yl]-2-oxoethyl}phenyl)-1,2-dihydrophthalazin-1-one]: the half-maximal inhibitory concentration (IC50) (as a rule, the concentration that gives 50% inhibition) at ROCK1 was in the range of 101 to 1000 nM; against ROCK2 it was 0.1 to 100 nM.
The corresponding values for `COc1ccc2c(=O)[nH]cc(-c3ccc(CC(=O)N4Cc5ccccc5C4)cc3)c2c1` [Example 262, 4-{4-[2-(2,3-Dihydro-1H-isoindol-2-yl)-2-oxoethyl]phenyl}-6-methoxy-1,2-dihydroisoquinolin-1-one] are 101 to 1000 nM and 0.1 to 100 nM.
The corresponding values for `Cc1cc(NC(=O)c2c(C)nc3ccccn23)ccc1-c1n[nH]c(=O)c2ccccc12` [Example 311, 2-methyl-N-[3-methyl-4-(4-oxo-3,4-dihydrophthalazin-1-yl)phenyl]imidazo[1,2-a] pyridine-3-carboxamide] are 0.1 to 100 nM and 0.1 to 100 nM.
Regarding `Cn1nc(C(=O)Nc2ccc(-c3n[nH]c(=O)c4ccccc34)cc2)cc1-c1ccccc1` [Example 207, 1-methyl-N-[4-(4-oxo-3,4-dihydrophthalazin-1-yl)phenyl]-5-phenyl-1H-pyrazole-3-carboxamide], the half-maximal inhibitory concentration (IC50) at ROCK1 and against ROCK2 was 0.1 to 100 nM in each case.
Consider `O=C(Nc1ccc(-c2n[nH]c(=O)c3ccccc23)c(CO)c1)c1nn(CC2CCOC2)c2ccccc12` (centres unmarked) [Example 355, N-(3-(Hydroxymethyl)-4-(4-oxo-3,4-dihydrophthalazin-1-yl)phenyl)-1-((tetrahydrofuran-3-yl)methyl)-1H-indazole-3-carboxamide], for which the figures for the IC50 at ROCK1 and against ROCK2 were 1000 to 50000 nM and 0.1 to 100 nM, respectively.
On the same counts, the results for `CC(C)(C)n1cc(C(=O)Nc2ccc(-c3n[nH]c(=O)c4ccccc34)cc2)cn1` [Example 381, 1-(tert-Butyl)-N-(4-(4-oxo-3,4-dihydrophthalazin-1-yl)phenyl)-1H-pyrazole-4-carboxamide] are 0.1 to 100 nM and 0.1 to 100 nM.
The corresponding values for `Cc1onc(NC(=O)Cc2ccc(-c3n[nH]c(=O)c4ccccc34)cc2)c1C` [Example 280, N-(dimethyl-1,2-oxazol-3-yl)-2-[4-(4-oxo-3,4-dihydrophthalazin-1-yl)phenyl]acetamide] are 101 to 1000 nM and 0.1 to 100 nM.
Consider `CN1CCC(Cn2nc(C(=O)Nc3ccc(-c4n[nH]c(=O)c5ccccc45)cc3)c3ccccc32)CC1` [Example 356, 1-((1-Methylpiperidin-4-yl)methyl)-N-(4-(4-oxo-3,4-dihydrophthalazin-1-yl)phenyl)-1H-indazole-3-carboxamide], for which the IC50 on ROCK1 lay in the range of 0.1 to 100 nM; against ROCK2 it was 101 to 1000 nM.
The corresponding values for `COc1ccc(-n2nnc(C(=O)Nc3ccc(-c4n[nH]c(=O)c5ccccc45)cc3)c2C)cc1` [Example 401, 1-(4-Methoxyphenyl)-5-methyl-N-(4-(4-oxo-3,4-dihydrophthalazin-1-yl)phenyl)-1H-1,2,3-triazole-4-carboxamide] are 0.1 to 100 nM and 0.1 to 100 nM.
As for `O=C(Nc1ccc(-c2n[nH]c(=O)c3ccccc23)cc1)c1nn(CC2CCOCC2)c2ccccc12` [Example 150, 1-(oxan-4-ylmethyl)-N-[4-(4-oxo-3,4-dihydrophthalazin-1-yl)phenyl]-1H-indazole-3-carboxamide], the 50% inhibitory concentration (IC50) at ROCK1 and at ROCK2 was 0.1 to 100 nM throughout.
As for `CC(C)(O)Cn1cc(C(=O)Nc2ccc(-c3n[nH]c(=O)c4ccccc34)cc2)cn1` [Example 377, 1-(2-Hydroxy-2-methylpropyl)-N-(4-(4-oxo-3,4-dihydrophthalazin-1-yl)phenyl)-1H-pyrazole-4-carboxamide], the values for the half-inhibitory concentration (IC50) on ROCK1 and on ROCK2 were 1000 to 50000 nM and 0.1 to 100 nM, respectively.
For `COCCOc1ccc2c(C(=O)Nc3ccc(-c4n[nH]c(=O)c5ccccc45)cc3)cnn2c1` [Example 175, 6-(2-methoxyethoxy)-N-[4-(4-oxo-3,4-dihydrophthalazin-1-yl)phenyl]pyrazolo[1,5-a]pyridine-3-carboxamide], the IC50 at ROCK1 and on ROCK2 was 0.1 to 100 nM in each case.
With `NC(=O)COc1ccc2c(c1)N(C(=O)Cc1ccc(-c3n[nH]c(=O)c4ccccc34)cc1)CC2` [Example 298, 2-((1-(2-(4-(4-Oxo-3,4-dihydrophthalazin-1-yl)phenyl)acetyl)indolin-6-yl)oxy)acetamide], the 50% inhibitory concentration (IC50) on ROCK1 and on ROCK2 was 0.1 to 100 nM each time.
Turning to `O=C(Nc1ccc(-c2n[nH]c(=O)c3ccccc23)c(CO)c1)c1cnn2ccccc12` [Example 362, N-(3-(Hydroxymethyl)-4-(4-oxo-3,4-dihydrophthalazin-1-yl)phenyl)pyrazolo[1,5-a]pyridine-3-carboxamide], the IC50 on ROCK1 lay in the range of 1000 to 50000 nM; at ROCK2, 0.1 to 100 nM.
On the same counts, the results for `CC(=O)N1CCC(C(=O)Nc2ccc(-c3n[nH]c(=O)c4ccccc34)cc2)CC1` [Example 55, 1-acetyl-N-[4-(4-oxo-3,4-dihydrophthalazin-1-yl)phenyl]piperidine-4-carboxamide] are 1000 to 50000 nM and 1000 to 50000 nM.
`Cn1nc(C(=O)Nc2ccc(-c3n[nH]c(=O)c4ccccc34)cc2)cc1OC(F)F` [Example 403, 5-(Difluoromethoxy)-1-methyl-N-(4-(4-oxo-3,4-dihydrophthalazin-1-yl)phenyl)-1H-pyrazole-3-carboxamide]: the IC50 at ROCK1 and on ROCK2 was 0.1 to 100 nM in each case.
For the molecule `COCCn1nc(C(=O)Nc2ccc(-c3n[nH]c(=O)c4ccccc34)cc2)c2ccccc21` [Example 151, 1-(2-methoxyethyl)-N-[4-(4-oxo-3,4-dihydrophthalazin-1-yl)phenyl]-1H-indazole-3-carboxamide], the 50% inhibitory concentration (IC50) on ROCK1 and against ROCK2 was 0.1 to 100 nM each time.
Turning to `O=C(Cc1ccc(-c2n[nH]c(=O)c3ccccc23)cc1)N1CCc2ccccc21` [Example 23, 4-{4-[2-(2,3-dihydro-1H-indol-1-yl)-2-oxoethyl]phenyl}-1,2-dihydrophthalazin-1-one], the half-maximal inhibitory concentration (IC50) lay in the range of 101 to 1000 nM on ROCK1 and 0.1 to 100 nM against ROCK2.
On to “N-[4-(4-oxo-3,4- dihydrophthalazin-1- yl)phenyl]pyrazolo[1,5- a]pyrimidine-2- carboxamide [Example 102]”, for which the IC50 on ROCK1 and against ROCK2 was 0.1 to 100 nM each time.
As for `O=C(Nc1ccc(-c2n[nH]c(=O)c3ccccc23)cc1)c1nn(CC2CCCO2)c2ccccc12` (centres unmarked) [Example 148, N-[4-(4-oxo-3,4-dihydrophthalazin-1-yl)phenyl]-1-(oxolan-2-ylmethyl)-1H-indazole-3-carboxamide], the IC50 at ROCK1 and against ROCK2 was 0.1 to 100 nM each time.
For `CC(C)(O)COc1ccn2ncc(C(=O)Nc3ccc(-c4n[nH]c(=O)c5ccccc45)cc3)c2c1` [Example 181, 5-(2-hydroxy-2-methylpropoxy)-N-[4-(4-oxo-3,4-dihydrophthalazin-1-yl)phenyl]pyrazolo[1,5-a]pyridine-3-carboxamide], the figures for the half-inhibitory concentration (IC50) at ROCK1 and against ROCK2 were 101 to 1000 nM and 0.1 to 100 nM, respectively.
